In patent publication US8680290B2, “Isoxazoline derivatives and their use as herbicides” (Syngenta Limited, priority 2004, dated 2014):

System: Monocotyledonous and dicotyledonous test plants
Assay: Example B1 herbicidal action, application pre-emergence (Table B1b)
Assay type: in vivo
Conditions: 250 g/ha, evaluated after 4 weeks
Procedure: Monocotyledonous and dicotyledonous test plants were sown in seed trays in standard soil. Immediately after sowing (pre-emergence) or after 8 to 9 days cultivation (post-emergence), the test compounds were applied by spraying in the form of an aqueous solution derived from the formulation of the technical active ingredient in 0.6 ml acetone and 45 ml formulation solution containing 10.6% Emulsogen EL (CAS RN 61791-12-6), 42.2% N-methylpyrrolidone, 42.2% dipropylene glycol monomethyl ether (CAS RN 34590-94-8) and 0.2% X-77 (CAS RN 11097-66-8). The test plants were then grown in a greenhouse under optimum conditions. After a test duration of 3 weeks (post-emergence) or 4 weeks (pre-emergence), the test was evaluated (10=total damage to plant, 0=no damage to plant).

**Q.** Which “herbicidal action (damage rating 0-10), Amaranthus” value (shortened to “herbicidal action … Amaranthus”) does the source give for CC1(C)CC(S(=O)(=O)C(F)(Cl)c2ccccc2F)=NO1 (racemic) [1.73] here?
**A.** 10

**Q.** What about the “herbicidal action (damage rating 0-10), Digitaria” value (“herbicidal action … Digitaria” below) of the same compound?
**A.** 10

**Q.** And the “herbicidal action (damage rating 0-10), Panicum” value (“herbicidal action … Panicum” for short)?
**A.** 10

**Q.** What about the “herbicidal action (damage rating 0-10), Setaria” value (“herbicidal action … Setaria” below) of the same compound?
**A.** 10

**Q.** What about the “herbicidal action (damage rating 0-10), Sida” value (“herbicidal action … Sida” below) of the same compound?
**A.** 8

**Q.** CC1(C)CC(S(=O)(=O)C(Br)c2ccccc2OC(F)F)=NO1 (racemic) [1.78] was tested. Which “herbicidal action … Amaranthus” value did it give?
**A.** 10

**Q.** And the “herbicidal action … Digitaria” value?
**A.** 10

**Q.** And the “herbicidal action … Panicum” value?
**A.** 10

**Q.** And the “herbicidal action … Setaria” value?
**A.** 10

**Q.** And the “herbicidal action … Sida” value?
**A.** 2

**Q.** For CC1(C)CC(S(=O)(=O)C(Br)c2ccccc2)=NO1 (racemic) [1.81], which “herbicidal action … Amaranthus” value is on record?
**A.** 9

**Q.** And the “herbicidal action … Digitaria” value?
**A.** 6

**Q.** And the “herbicidal action … Panicum” value?
**A.** 8

**Q.** What about the “herbicidal action … Setaria” value of the same compound?
**A.** 5

**Q.** And the “herbicidal action … Sida” value?
**A.** 0

**Q.** CC1(C)CC(S(=O)(=O)C(Br)c2ccccc2F)=NO1 (racemic) [1.82] was tested. Which “herbicidal action … Amaranthus” value did it give?
**A.** 10

**Q.** And the “herbicidal action … Digitaria” value?
**A.** 9

**Q.** What about the “herbicidal action … Panicum” value of the same compound?
**A.** 10

**Q.** What about the “herbicidal action … Setaria” value of the same compound?
**A.** 9

**Q.** What about the “herbicidal action … Sida” value of the same compound?
**A.** 0

**Q.** Which results are given for COc1cc(OC)cc(C(Br)S(=O)(=O)C2=NOC(C)(C)C2)c1 (racemic) [1.84]?
**A.** herbicidal action (damage rating 0-10), Amaranthus: 10; herbicidal action (damage rating 0-10), Digitaria: 9; herbicidal action (damage rating 0-10), Panicum: 10; herbicidal action (damage rating 0-10), Setaria: 9; herbicidal action (damage rating 0-10), Sida: 0

**Q.** Which results are given for CC1(C)CC(S(=O)(=O)C(Cl)c2c(F)cccc2C(F)(F)F)=NO1 (racemic) [1.91]?
**A.** herbicidal action (damage rating 0-10), Amaranthus: 3; herbicidal action (damage rating 0-10), Digitaria: 10; herbicidal action (damage rating 0-10), Setaria: 9; herbicidal action (damage rating 0-10), Sida: 10

**Q.** Which results are given for CC1(C)CC(S(=O)(=O)C(Cn2ccnc2)c2c(F)cccc2F)=NO1 (racemic) [Compound No. 1.87]?
**A.** herbicidal action (damage rating 0-10), Amaranthus: 3; herbicidal action (damage rating 0-10), Digitaria: 7; herbicidal action (damage rating 0-10), Panicum: 5; herbicidal action (damage rating 0-10), Setaria: 7; herbicidal action (damage rating 0-10), Sida: 0

**Q.** With CC1(C)CC(S(=O)(=O)C(Cn2cncn2)c2c(F)cccc2F)=NO1 (racemic) [Compound No. 1.90] as the compound, how does the “herbicidal action … Amaranthus” value read?
**A.** 4

**Q.** And the “herbicidal action … Digitaria” value?
**A.** 4

**Q.** And the “herbicidal action … Panicum” value?
**A.** 0

**Q.** What about the “herbicidal action … Setaria” value of the same compound?
**A.** 0

**Q.** And the “herbicidal action … Sida” value?
**A.** 5

**Q.** Which “herbicidal action … Amaranthus” value does the source give for CC1(C)CC([S+]([O-])C(Cl)c2c(F)cccc2Cl)=NO1 (single isomer, unassigned) [1.33] here?
**A.** 0

**Q.** And the “herbicidal action … Digitaria” value?
**A.** 8

**Q.** What about the “herbicidal action … Panicum” value of the same compound?
**A.** 10

**Q.** And the “herbicidal action … Setaria” value?
**A.** 7

**Q.** And the “herbicidal action … Sida” value?
**A.** 0

**Q.** CCC(Cl)(c1c(F)cccc1F)S(=O)(=O)C1=NOC(C)(C)C1 (centres unmarked) [1.16] was tested. Which “herbicidal action … Amaranthus” value did it give?
**A.** 0

**Q.** And the “herbicidal action … Digitaria” value?
**A.** 4

**Q.** And the “herbicidal action … Panicum” value?
**A.** 5

**Q.** And the “herbicidal action … Setaria” value?
**A.** 4

**Q.** What about the “herbicidal action … Sida” value of the same compound?
**A.** 0

**Q.** For CC1(C)CC(S(=O)(=O)C(Br)(Br)c2c(F)cccc2F)=NO1 [1.50], which “herbicidal action … Amaranthus” value is on record?
**A.** 10

**Q.** And the “herbicidal action … Digitaria” value?
**A.** 9

**Q.** And the “herbicidal action … Panicum” value?
**A.** 10

**Q.** What about the “herbicidal action … Setaria” value of the same compound?
**A.** 10

**Q.** And the “herbicidal action … Sida” value?
**A.** 7

**Q.** What does the source list for COc1ccccc1C(Br)S(=O)(=O)C1=NOC(C)(C)C1 (centres unmarked) [1.101]?
**A.** herbicidal action (damage rating 0-10), Amaranthus: 9; herbicidal action (damage rating 0-10), Digitaria: 8; herbicidal action (damage rating 0-10), Panicum: 8; herbicidal action (damage rating 0-10), Setaria: 8; herbicidal action (damage rating 0-10), Sida: 0

**Q.** For CC1(C)CC(S(=O)(=O)C(Br)c2cc(F)cc3c2OCOC3)=NO1 (centres unmarked) [1.103], which “herbicidal action … Amaranthus” value is on record?
**A.** 3

**Q.** What about the “herbicidal action … Digitaria” value of the same compound?
**A.** 9

**Q.** What about the “herbicidal action … Panicum” value of the same compound?
**A.** 9

**Q.** And the “herbicidal action … Setaria” value?
**A.** 5

**Q.** What about the “herbicidal action … Sida” value of the same compound?
**A.** 0

**Q.** How did the “herbicidal action … Amaranthus” value turn out when CC1(C)CC(S(=O)(=O)C(F)c2cc(F)cc3c2OCOC3)=NO1 (centres unmarked) [1.106] was run?
**A.** 3

**Q.** And the “herbicidal action … Digitaria” value?
**A.** 7

**Q.** And the “herbicidal action … Panicum” value?
**A.** 8

**Q.** And the “herbicidal action … Setaria” value?
**A.** 6

**Q.** What about the “herbicidal action … Sida” value of the same compound?
**A.** 0

**Q.** What does the source list for CC1(C)CC(S(=O)(=O)C(Br)c2cc(F)cc(F)c2)=NO1 (centres unmarked) [1.134]?
**A.** herbicidal action (damage rating 0-10), Amaranthus: 5; herbicidal action (damage rating 0-10), Digitaria: 10; herbicidal action (damage rating 0-10), Panicum: 10; herbicidal action (damage rating 0-10), Setaria: 9; herbicidal action (damage rating 0-10), Sida: 0

**Q.** How did the “herbicidal action … Amaranthus” value turn out when CC1(C)CC(S(=O)(=O)C(Br)c2cc(F)ccc2F)=NO1 (centres unmarked) [1.135] was run?
**A.** 7

**Q.** What about the “herbicidal action … Digitaria” value of the same compound?
**A.** 10

**Q.** What about the “herbicidal action … Panicum” value of the same compound?
**A.** 10

**Q.** And the “herbicidal action … Setaria” value?
**A.** 9

**Q.** And the “herbicidal action … Sida” value?
**A.** 0

**Q.** CC1(C)CC([S+]([O-])C(c2c(F)cccc2F)C(F)(F)F)=NO1 (centres unmarked) [1.139] was tested. Which “herbicidal action … Amaranthus” value did it give?
**A.** 0

**Q.** What about the “herbicidal action … Digitaria” value of the same compound?
**A.** 8

**Q.** What about the “herbicidal action … Panicum” value of the same compound?
**A.** 0

**Q.** And the “herbicidal action … Setaria” value?
**A.** 7

**Q.** And the “herbicidal action … Sida” value?
**A.** 0

**Q.** With COc1ccccc1C(Cl)S(=O)(=O)C1=NOC(C)(C)C1 (centres unmarked) [1.141] as the compound, how does the “herbicidal action … Amaranthus” value read?
**A.** 5

**Q.** What about the “herbicidal action … Digitaria” value of the same compound?
**A.** 9

**Q.** And the “herbicidal action … Panicum” value?
**A.** 9

**Q.** What about the “herbicidal action … Setaria” value of the same compound?
**A.** 9

**Q.** What about the “herbicidal action … Sida” value of the same compound?
**A.** 0

**Q.** Which “herbicidal action … Amaranthus” value does the source give for Cc1ccc(F)c(C(Cl)S(=O)(=O)C2=NOC(C)(C)C2)c1F (centres unmarked) [1.145] here?
**A.** 10

**Q.** What about the “herbicidal action … Digitaria” value of the same compound?
**A.** 10

**Q.** And the “herbicidal action … Panicum” value?
**A.** 10

**Q.** And the “herbicidal action … Setaria” value?
**A.** 10

**Q.** What about the “herbicidal action … Sida” value of the same compound?
**A.** 7

**Q.** Which results are given for CC1(C)CC(S(=O)(=O)C(Br)c2ccc(F)cc2F)=NO1 (centres unmarked) [1.150]?
**A.** herbicidal action (damage rating 0-10), Amaranthus: 6; herbicidal action (damage rating 0-10), Digitaria: 10; herbicidal action (damage rating 0-10), Panicum: 10; herbicidal action (damage rating 0-10), Setaria: 9; herbicidal action (damage rating 0-10), Sida: 0

**Q.** How did the “herbicidal action … Amaranthus” value turn out when CC1(C)CC(S(=O)(=O)C(Br)c2ccccc2-c2ccccc2)=NO1 (centres unmarked) [1.151] was run?
**A.** 5

**Q.** What about the “herbicidal action … Digitaria” value of the same compound?
**A.** 0

**Q.** What about the “herbicidal action … Panicum” value of the same compound?
**A.** 8

**Q.** What about the “herbicidal action … Setaria” value of the same compound?
**A.** 7

**Q.** And the “herbicidal action … Sida” value?
**A.** 4

**Q.** With Cn1nc(C(F)(F)F)c(C(C(=O)C(F)F)S(=O)(=O)C2=NOC(C)(C)C2)c1OCC(F)(F)F (centres unmarked) [2.06] as the compound, how does the “herbicidal action … Amaranthus” value read?
**A.** 7

**Q.** What about the “herbicidal action … Digitaria” value of the same compound?
**A.** 8

**Q.** What about the “herbicidal action … Panicum” value of the same compound?
**A.** 8

**Q.** And the “herbicidal action … Setaria” value?
**A.** 7

**Q.** What about the “herbicidal action … Sida” value of the same compound?
**A.** 3

**Q.** Which “herbicidal action … Amaranthus” value does the source give for CC(=O)C(c1c(C(F)(F)F)nn(C)c1OCC(F)(F)F)S(=O)(=O)C1=NOC(C)(C)C1 (centres unmarked) [2.08] here?
**A.** 4

**Q.** What about the “herbicidal action … Digitaria” value of the same compound?
**A.** 2

**Q.** What about the “herbicidal action … Panicum” value of the same compound?
**A.** 9

**Q.** What about the “herbicidal action … Sida” value of the same compound?
**A.** 2

**Q.** Which results are given for CCOc1c(C(F)(F)S(=O)(=O)C2=NOC(C)(C)C2)c(C(F)(F)F)nn1C [2.17]?
**A.** herbicidal action (damage rating 0-10), Amaranthus: 10; herbicidal action (damage rating 0-10), Digitaria: 8; herbicidal action (damage rating 0-10), Panicum: 8; herbicidal action (damage rating 0-10), Setaria: 8; herbicidal action (damage rating 0-10), Sida: 5

**Q.** Which “herbicidal action … Amaranthus” value does the source give for Cn1nc(C(F)(F)F)c(C(F)(F)S(=O)(=O)C2=NOC(C)(C)C2)c1OCC(F)F [2.21] here?
**A.** 10

**Q.** What about the “herbicidal action … Digitaria” value of the same compound?
**A.** 10

**Q.** What about the “herbicidal action … Panicum” value of the same compound?
**A.** 10

**Q.** And the “herbicidal action … Setaria” value?
**A.** 10

**Q.** And the “herbicidal action … Sida” value?
**A.** 8

**Q.** How did the “herbicidal action … Amaranthus” value turn out when CC(=O)OC(C)=C(c1c(C(F)(F)F)nn(C)c1OCC(F)(F)F)S(=O)(=O)C1=NOC(C)(C)C1 [2.32] was run?
**A.** 7

**Q.** What about the “herbicidal action … Digitaria” value of the same compound?
**A.** 4

**Q.** And the “herbicidal action … Panicum” value?
**A.** 7

**Q.** What about the “herbicidal action … Setaria” value of the same compound?
**A.** 4

**Q.** What about the “herbicidal action … Sida” value of the same compound?
**A.** 0
